# Experimental data published in PubChem BioAssay AID2060513 (Molecular Pharmacology Branch, DTP, NCI, 2025).
# Tested on: 299254-011-R-J1-PDC complex spheroids viability
# Experiment: Anticancer human tumor 299254-011-R-J1-PDC patient-derived melanoma cell line growth inhibition [GQUAD]
# Conditions: for IC50: curve of first compound; for viability, T/C: stronger effect = lower value
# Summary of the method: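 Multi-cell-type spheroids of tumor cells with HUVEC and mesenchymal stem cells, treated with drug combinations. Concentrations descend in half-log steps from near clinical Cmax, or from 10 microM where Cmax is unknown; viability read-out.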
# [1] = second compound 0.0316 µM, first compound 0.0316 µM
# [2] = second compound 0.0316 µM, first compound 0.1 µM
# [3] = second compound 0.0316 µM, first compound 0.316 µM
# [4] = second compound 0.0316 µM, first compound 1 µM
# [5] = second compound 0.0316 µM, first compound 3.16 µM
# [6] = second compound 0.0316 µM, first compound 10 µM
# [7] = second compound 0.1 µM, first compound 0.0316 µM
# [8] = second compound 0.1 µM, first compound 0.1 µM
# [9] = second compound 0.1 µM, first compound 0.316 µM
# [10] = second compound 0.1 µM, first compound 1 µM
# [11] = second compound 0.1 µM, first compound 3.16 µM
# [12] = second compound 0.1 µM, first compound 10 µM
# [13] = second compound 0.316 µM, first compound 0.0316 µM
# [14] = second compound 0.316 µM, first compound 0.1 µM
# [15] = second compound 0.316 µM, first compound 0.316 µM
# [16] = second compound 0.316 µM, first compound 1 µM
# [17] = second compound 0.316 µM, first compound 3.16 µM
# [18] = second compound 0.316 µM, first compound 10 µM
# [19] = second compound 1 µM, first compound 0.0316 µM
# [20] = second compound 1 µM, first compound 0.1 µM
# [21] = second compound 1 µM, first compound 0.316 µM
# [22] = second compound 1 µM, first compound 1 µM
# [23] = second compound 1 µM, first compound 3.16 µM
# [24] = second compound 1 µM, first compound 10 µM
# [25] = second compound 3.16 µM, first compound 0.0316 µM
# [26] = second compound 3.16 µM, first compound 0.1 µM
# [27] = second compound 3.16 µM, first compound 0.316 µM
# [28] = second compound 3.16 µM, first compound 1 µM
# [29] = second compound 3.16 µM, first compound 3.16 µM
# [30] = second compound 3.16 µM, first compound 10 µM
# [31] = second compound 10 µM, first compound 0.0316 µM
# [32] = second compound 10 µM, first compound 0.1 µM
# [33] = second compound 10 µM, first compound 0.316 µM
# [34] = second compound 10 µM, first compound 1 µM
# [35] = second compound 10 µM, first compound 3.16 µM
# [36] = second compound 10 µM, first compound 10 µM
# 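Further: spheroids exposed to the agents for seven days before readout.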
# 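Wherever viability, T/C is given: percent viability relative to DMSO vehicle control wells = 100%.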
smiles,measurement,setting,value
CC(=O)O[C@H]1C(=O)[C@@]2(C)[C@H]([C@H](OC(=O)c3ccccc3)[C@]3(O)C[C@H](OC(=O)[C@H](O)[C@@H](NC(=O)c4ccccc4)c4ccccc4)C(C)=C1C3(C)C)[C@]1(OC(C)=O)CO[C@@H]1C[C@@H]2O + Cc1[nH]c2ccc(F)cc2c1-c1nc2c3cccnc3c3ncccc3c2[nH]1,IC50,second compound 0.0316 µM,0.448 µM
same,IC50,second compound 0.1 µM,0.274 µM
same,IC50,second compound 0.316 µM,0.445 µM
same,IC50,second compound 1 µM,0.506 µM
same,IC50,second compound 3.16 µM,0.531 µM
same,IC50,second compound 10 µM,0.405 µM
same,"viability, T/C",[1],90.7%
same,"viability, T/C",[2],82%
same,"viability, T/C",[3],58.2%
same,"viability, T/C",[4],31.2%
same,"viability, T/C",[5],18%
same,"viability, T/C",[6],15.5%
same,"viability, T/C",[7],86.8%
same,"viability, T/C",[8],94.6%
same,"viability, T/C",[9],44.2%
same,"viability, T/C",[10],35.9%
same,"viability, T/C",[11],20.7%
same,"viability, T/C",[12],13.9%
same,"viability, T/C",[13],104%
same,"viability, T/C",[14],86.1%
same,"viability, T/C",[15],57.2%
same,"viability, T/C",[16],33.4%
same,"viability, T/C",[17],19.2%
same,"viability, T/C",[18],17.3%
same,"viability, T/C",[19],89.6%
same,"viability, T/C",[20],92.6%
same,"viability, T/C",[21],50.1%
same,"viability, T/C",[22],43.1%
same,"viability, T/C",[23],21.2%
same,"viability, T/C",[24],17.4%
same,"viability, T/C",[25],83.3%
same,"viability, T/C",[26],84.2%
same,"viability, T/C",[27],58.2%
same,"viability, T/C",[28],38.7%
same,"viability, T/C",[29],22.8%
same,"viability, T/C",[30],21.6%
same,"viability, T/C",[31],87.6%
same,"viability, T/C",[32],84.5%
same,"viability, T/C",[33],48.3%
same,"viability, T/C",[34],40.3%
same,"viability, T/C",[35],23.7%
same,"viability, T/C",[36],22.8%
CC(C)(O)C1CCC(Nc2ccc3ncc(-c4cccc(C(F)(F)F)c4)n3n2)CC1 (stereo unspecified) + Cc1cnc(CNC(=O)c2c(=O)c3ccc(N4CCCN(C)CC4)nc3n3c2sc2ccccc23)cn1,IC50,second compound 0.0316 µM,> 10 µM
same,IC50,second compound 0.1 µM,> 10 µM
same,IC50,second compound 0.316 µM,> 10 µM
same,IC50,second compound 1 µM,4.52 µM
same,IC50,second compound 3.16 µM,1.96 µM
same,IC50,second compound 10 µM,< 0.0316 µM
same,"viability, T/C",[1],98.5%
same,"viability, T/C",[2],114%
same,"viability, T/C",[3],97.5%
same,"viability, T/C",[4],90.7%
same,"viability, T/C",[5],54.5%
same,"viability, T/C",[6],100%
same,"viability, T/C",[7],89.3%
same,"viability, T/C",[8],101%
same,"viability, T/C",[9],113%
same,"viability, T/C",[10],98.6%
same,"viability, T/C",[11],63.7%
same,"viability, T/C",[12],110%
same,"viability, T/C",[13],90.1%
same,"viability, T/C",[14],100%
same,"viability, T/C",[15],88.4%
same,"viability, T/C",[16],98.2%
same,"viability, T/C",[17],60%
same,"viability, T/C",[18],84%
same,"viability, T/C",[19],81.7%
same,"viability, T/C",[20],112%
same,"viability, T/C",[21],96.7%
same,"viability, T/C",[22],74.7%
same,"viability, T/C",[23],55.8%
same,"viability, T/C",[24],42.3%
same,"viability, T/C",[25],76.7%
same,"viability, T/C",[26],85.9%
same,"viability, T/C",[27],86.4%
same,"viability, T/C",[28],76.8%
same,"viability, T/C",[29],24.1%
same,"viability, T/C",[30],37.6%
same,"viability, T/C",[31],45.7%
same,"viability, T/C",[32],18%
same,"viability, T/C",[33],17.3%
same,"viability, T/C",[34],0.33%
same,"viability, T/C",[35],0.29%
same,"viability, T/C",[36],0.26%
Cn1ncnc1[C@H]1c2n[nH]c(=O)c3cc(F)cc(c23)N[C@@H]1c1ccc(F)cc1 + CN(C)c1ccc(Nc2c3ccc(NC(=O)CCN4CCCC4)cc3nc3cc(NC(=O)CCN4CCCC4)ccc23)cc1,IC50,second compound 0.0316 µM,> 0.316 µM
same,IC50,second compound 0.1 µM,> 0.316 µM
same,IC50,second compound 0.316 µM,> 0.316 µM
same,IC50,second compound 1 µM,> 0.316 µM
same,IC50,second compound 3.16 µM,> 0.316 µM
same,IC50,second compound 10 µM,> 0.316 µM
same,"viability, T/C","second compound 0.0316 µM, first compound 0.000999 µM",108%
same,"viability, T/C","second compound 0.0316 µM, first compound 0.00316 µM",101%
same,"viability, T/C","second compound 0.0316 µM, first compound 0.00999 µM",100%
same,"viability, T/C",[1],101%
same,"viability, T/C","second compound 0.0316 µM, first compound 0.0999 µM",105%
same,"viability, T/C",[3],83.8%
same,"viability, T/C","second compound 0.1 µM, first compound 0.000999 µM",90.5%
same,"viability, T/C","second compound 0.1 µM, first compound 0.00316 µM",109%
same,"viability, T/C","second compound 0.1 µM, first compound 0.00999 µM",107%
same,"viability, T/C",[7],102%
same,"viability, T/C","second compound 0.1 µM, first compound 0.0999 µM",86.9%
same,"viability, T/C",[9],87.5%
same,"viability, T/C","second compound 0.316 µM, first compound 0.000999 µM",110%
same,"viability, T/C","second compound 0.316 µM, first compound 0.00316 µM",90.3%
same,"viability, T/C","second compound 0.316 µM, first compound 0.00999 µM",100%
same,"viability, T/C",[13],106%
same,"viability, T/C","second compound 0.316 µM, first compound 0.0999 µM",93.1%
same,"viability, T/C",[15],97.8%
same,"viability, T/C","second compound 1 µM, first compound 0.000999 µM",121%
same,"viability, T/C","second compound 1 µM, first compound 0.00316 µM",84.5%
same,"viability, T/C","second compound 1 µM, first compound 0.00999 µM",98.4%
same,"viability, T/C",[19],92.8%
same,"viability, T/C","second compound 1 µM, first compound 0.0999 µM",98.6%
same,"viability, T/C",[21],92.6%
same,"viability, T/C","second compound 3.16 µM, first compound 0.000999 µM",110%
same,"viability, T/C","second compound 3.16 µM, first compound 0.00316 µM",98.2%
same,"viability, T/C","second compound 3.16 µM, first compound 0.00999 µM",101%
same,"viability, T/C",[25],105%
same,"viability, T/C","second compound 3.16 µM, first compound 0.0999 µM",112%
same,"viability, T/C",[27],100%
same,"viability, T/C","second compound 10 µM, first compound 0.000999 µM",87%
same,"viability, T/C","second compound 10 µM, first compound 0.00316 µM",85.2%
same,"viability, T/C","second compound 10 µM, first compound 0.00999 µM",89.8%
same,"viability, T/C",[31],101%
same,"viability, T/C","second compound 10 µM, first compound 0.0999 µM",93.9%
same,"viability, T/C",[33],109%
